Patent publication US20180085385A1, “GLUCOSE-SENSITIVE CELL PROTECTING AGENT” (THE UNIVERSITY OF TOKYO, priority 2015, published 2018)

How the values were obtained:
[1] = test system: orexin nerve cells differentiated from human iPS cells; assay: Protection or recovery of orexin nerve cells under high glucose by various ManNAc derivatives (Example 3); format: cell-based; details: for recovery activity of orexin production (Hcrt expression intensity): 12-day course: high glucose 25 mM from day 0, compound 1 μM added from +day 8, harvested +day 12
Method: (§1) Total RNA was extracted from the harvested cells by using RNeasy plus Mini Kit (QIAGEN). Then, using SuperScript III First Strand Synthesis System (Invitrogen), a reverse transcription reaction was performed in a reaction mixture containing total RNA (1 μg) and Oligo (dT), whereby cDNA was synthesized.
(§2) PCR reaction was performed on a 10 μl scale, 1 U LA-Tag DNA Polymerase (Takara) was added to 0.5 μl of cDNA, 5 μl of 2×GC Buffer I, 200 μM of each dNTP, 1.5 mM MgCl2 and final concentration 0.2 μM of each primer and, after heat denaturation at 95° C. for 3 min, and PCR was performed under the conditions of (95° C. 30 sec, 55° C. 30 sec, 72° C. 30 sec)×35 cycles (20 cycles for Actb). The primers used are shown below.
(§3) Each PCR product was electrophoresed on 2% agarose gel and stained with ethidium bromide, and the bands were observed by UV irradiation.
The orexin nerve cells were cultured in a neuronal differentiation medium (G-MEM+10% KSR (KnockOut Serum Replacement, Invitrogen)) for 8 days or 12 days, and maintained in vitro. In this case, the glucose concentration of the medium was set to a high glucose concentration (25 mM), ManNAc or various ManNAc derivatives (each 1 μM) were added, and the cells were cultured. In the 8-day culture course, glucose and ManNAc or various ManNAc derivatives were added to the medium from the start of the culture (+day 0), the cells were harvested on +day 8 the orexin expression was analyzed. As a control, orexin nerve cells cultured at low glucose concentration (5 mM) were prepared. In the 12-day culture course, high glucose was added from the start of the culture (+day 0), ManNAc or various ManNAc derivatives were added to the medium from +day 8 from the start of the culture, the cells were harvested on +day 12, and the orexin expression was analyzed. As a control, orexin nerve cells cultured at low glucose concentration (5 mM) from +day 8 from the start of the culture were prepared. According to the expression analysis by the RT-PCR method described in Reference Example 1, the expression of Hcrt gene was examined. Based on the expression of Hcrt gene in orexin nerve cells at the start of the culture, expression of Hcrt gene in orexin nerve cells after culture with the addition of ManNAc or various ManNAc derivatives under high glucose conditions is shown by expression intensity (FIG. 3).

[2] = test system: orexin nerve cells differentiated from human iPS cells; assay: Disappearance of orexin nerve cells under high glucose concentration and protection or recovery from disappearance (Example 1); format: cell-based; details: for recovery of orexin nerve cells (expression of orexin): culture under high glucose concentration extended for 2 or 4 more days, compound then added to the medium; for disappearance of the orexin nerve cells (orexin (Hcrt) expression): high glucose concentration (25 mM), 8 days, addition concentration 10 μM ManNAc, 1 μM ManNAcF
Method: as §1, §2, §3
The orexin nerve cells were cultured in a neuronal differentiation medium (G-MEM+10% KSR (Knockout Serum Replacement, Invitrogen)) for 8 days, and maintained in vitro. In this case, the cells were divided based on the glucose concentration in the medium into two groups having low glucose concentration (5 mM) and high glucose concentration (25 mM) and cultured.

[3] = test system: Gne/Mnk M712T homozygous mutant mouse; details: mutant mice otherwise did not survive beyond age 3 after birth; cited from earlier work
human iPS cells = assay: Orexin cell induction from human iPS cells (SDIA differentiation culture, Hcrt RT-PCR); format: cell-based; details: for orexin cell induction activity (Hcrt expression): 8, 40, 200 nM, 1 μM and 5 μM instead of 1.0 mM ManNAc, compared to ManNAc
Method: Human iPS cell line 201B7 (HSP0001) was obtained from BioResource Center, RIKEN, Japan via National BioResource project (MEXT, Japan). Human iPS cells were maintained on a feeder layer of mitomycin C-treated STO/Neo resistant/LIF(SNL) feeder cells in primates ES medium (ReproCELL) supplemented with 5 ng/mL recombinant human bFGF (Wako). For differentiation induction into nerve by SDIA and BMP4 system, human iPS cells were cocultured with PA6 for 20 days. 5 nM BMP4 was supplemented from day 7. From the start of the differentiation culture (day 0), ManNAc was added to a neuronal differentiation medium to 1.0 mM, and the medium was exchanged on days 7, 10 and 14 of differentiation culture. In addition, 5 nM recombinant human BMP4 (Wako) was added from day 7 of the differentiation culture. On day 14 of the differentiation culture, EX-527 (SIGMA-ALDRICH) was added to neuronal differentiation medium to 50 nM, or BADGP (SIGMA-ALDRICH) was added to neuronal differentiation medium to 5 mM, and the cells were harvested on day 20 of the differentiation culture and subjected to RT-PCR.
as §1, §2, §3
According to the method described in Reference Example 1 except that ManNAc, ManNAcF, 5S-ManNAc, 5S-ManNAcF, ManNCOOMe or ManNCOOEt (8, 40, 200 nM, 1 μM and 5 μM, respectively) was added instead of 1.0 mM ManNAc, orexin cells were induced from human iPS cells. The expression of orexin gene (Hcrt) in the cells induced under the various conditions was examined.

[4] = test system: renal proximal tubule epithelial cells derived from type II diabetes patients (D-RPTEC); assay: Histone O-GlcNAc modification level in D-RPTEC by immunofluorescence staining; format: cell-based, human; details: D-RPTEC cultured 96 hr under high glucose (25 mM glucose)
Method: Normal human renal proximal tubule epithelial cells and RPTEC derived from type II diabetes patients (D-RPTEC) were purchased from Lonza. RPTEC and D-RPTEC maintained with REGM™ Renal Epithelial Cell proliferation Medium Bullet Kit (Lonza) were each seeded in a 4-well dish at 1×10^4 cells per 1 well, and cultured for 4 days in a control medium or high glucose medium (adjusted to final concentration of 25 mM with 2.5 M glucose solution).
The cultured cells were fixed with 4% para-formaldehyde for 20 min and, after a permeabilization treatment with 0.2% TritonX-100-PBS solution, treated overnight with a blocking solution [PBS(−) containing 5% bovine serum-derived albumin (BSA), 0.1% Tween20, 0.2% TritonX-100] at 4° C. Then, the cells were reacted with anti-histone O-GlcNAc antibody (20B2) diluted with 5% BSA-PBS(−)-0.1% Tween20 at 4° C. overnight, reacted with secondary antibody diluted with PBS(−) at room temperature for 1 hr. The nucleus was stained with 1 μg/ml DAPI (Dojindo) at room temperature for 20 min, mounted in mountant (VECTASHIELD), and slides were prepared. Observation was performed with an integrated confocal laser microscope (FV10i, OLYMPUS). After obtaining images, the number of O-GlcNAc signals in the nucleus was measured by image analysis software Cell Profiler (www.cellprofiler.org), and statistical processing was performed by Wilcoxon rank-sum test. […]

[5] = test system: orexin nerve cells in the brain of diabetic model mice (db/db mouse); assay: Protection of nerve cells from disappearance at individual level, high fat feed db/db mouse, in situ hybridization; format: in vivo; details: high fat feed 6 to 8 weeks of age, 5 μg/μl ManNAc containing drinking water
Method: To confirm effectiveness of ManNAc for nerve cell protection at an individual level, the number of orexin nerve cells and orexin expression were examined using genetically obese mouse (db/db mouse, hetero mouse as control, all male) (each group n=6). The breeding conditions of each group (6-8 weeks old) are as described below. […]
high fat feed+drinking water group high fat feed+5 μg/μl ManNAc containing drinking water group normal food+drinking water group normal food+5 μg/μl ManNAc containing drinking water group
Three individual mice from each group mentioned above were subjected to Nembutal anesthesia, and perfusion was fixed with formamide fixative (Genostaff). The brain was taken out, embedded in paraffin, and sections with 6 μm thickness in the sagittal direction were prepared. […]
was cloned into […] vector (Promega), and using DIG RNA Labeling Mix (Roche) and the plasmid as a template, digoxigenin-labeled RNA probe was prepared. […] The cells expressing orexin gene were counted, and the mean of 3 individuals and standard error were determined.

Structure (SMILES) | recovery activity of orexin production (Hcrt expression intensity) [1] | recovery of orexin nerve cells (expression of orexin) [2] | orexin cell induction activity (Hcrt expression) (human iPS cells) | other results
CC(=O)NC1C(O)SC(CO)[C@@H](O)[C@@H]1O (stereo partly drawn) [5S-ManNAc] | low activity |  |  | 
CC(=O)N[C@H]1[C@@H](OCc2ccccc2)O[C@H](CO)[C@H](O)[C@@H]1O [BADGP, reference compound] |  | completely ineffective |  | 
NC(=O)C1CCCc2c1[nH]c1ccc(Cl)cc21 (stereo not shown) [EX-527, reference compound] |  | completely ineffective |  | 
CC(=O)N[C@@H]1C(O)O[C@H](CO)[C@@H](O)[C@@H]1O (stereo partly drawn) [ManNAc, N-acetyl-D-mannosamine] | higher | expression of orexin was observed |  | survival of Gne/Mnk M712T homozygous mutant mice [3]: rescued the mice; expression of orexin gene (Hcrt) (human iPS cells; 1.0 mM ManNAc from day 0, EX-527 50 nM or BADGP 5 mM from day 14, harvested day 20): expression of Hcrt was observed; disappearance of the orexin nerve cells (orexin (Hcrt) expression) [2]: disappearance of the orexin nerve cells could be avoided; histone O-GlcNAc modification level [4]: increase in the histone O-GlcNAc modification level was observed; decrease in the number of orexin nerve cells and the orexin gene expression [5]: suppressed
O=C(CF)NC1C(O)OC(CO)[C@@H](O)[C@@H]1O (stereo partly shown) [ManNAcF] | highest activity | expression of orexin was observed | higher orexin cell induction activity as compared to ManNAc | disappearance of the orexin nerve cells (orexin (Hcrt) expression) [2]: disappearance of the orexin nerve cells could be avoided
CCOC(=O)NC1C(O)OC(CO)[C@@H](O)C1O (stereo partly shown) [ManNCOOEt] | low activity |  | higher orexin cell induction activity as compared to ManNAc | 
COC(=O)NC1C(O)OC(CO)[C@@H](O)C1O (stereo partly shown) [ManNCOOMe] | low activity |  | higher orexin cell induction activity as compared to ManNAc | maintenance of orexin production (Hcrt expression intensity) ([1]; 8-day course: high glucose 25 mM and compound 1 μM from +day 0, harvested +day 8): orexin production was maintained except for ManNCOOMe
